Source: patent US20220062240A1, “METHODS OF TREATING CANCER USING A CLK INHIBITOR” (BioSplice Therapeutics, Inc., priority 2018, published 2022)
Read-outs that look alike come from different tables or passages of the source.

How the values were obtained:
CLK2 = biological target: T1, CLK2 (Homo sapiens, UniProt P49760); assay: CLK2 kinase activity assay (Z-lyte, Ser/Thr 6 peptide); assay type: biochemical; details: recombinant CLK2 kinase, ATP 60 μM; read-out: EC50
T1 construct: purchased Thermo Fisher (Life Technologies), Z'-LYTE Kinase Assay Kits
T1 sequence (P49760 whole entry): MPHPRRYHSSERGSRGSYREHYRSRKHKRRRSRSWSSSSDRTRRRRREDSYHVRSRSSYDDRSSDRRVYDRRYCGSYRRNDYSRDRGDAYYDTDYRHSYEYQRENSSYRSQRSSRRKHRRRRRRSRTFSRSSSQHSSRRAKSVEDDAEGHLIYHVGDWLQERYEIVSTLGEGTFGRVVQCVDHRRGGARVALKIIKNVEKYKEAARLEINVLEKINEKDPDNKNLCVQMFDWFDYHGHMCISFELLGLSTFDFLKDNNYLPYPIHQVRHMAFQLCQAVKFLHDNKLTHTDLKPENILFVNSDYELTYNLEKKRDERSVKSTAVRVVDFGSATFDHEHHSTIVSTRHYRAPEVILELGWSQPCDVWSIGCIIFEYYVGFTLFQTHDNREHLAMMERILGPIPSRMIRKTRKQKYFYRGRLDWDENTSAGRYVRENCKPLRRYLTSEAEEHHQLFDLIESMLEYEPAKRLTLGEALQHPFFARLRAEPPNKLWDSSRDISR
Procedure: All reactions were performed in duplicate.

BT-549 = assay: CellTiter-Glo Viability Assay, breast cancer; assay type: cell-based; details: Homo sapiens, 96 h; BT-549, breast cancer, four days; read-out: EC50
CAMA1 = assay: CellTiter-Glo Viability Assay, breast cancer; assay type: cell-based; details: Homo sapiens, CAMA-1, 96 h; CAMA1, breast cancer, four days; read-out: EC50
DU4475 = assay: CellTiter-Glo Viability Assay, breast cancer; assay type: cell-based; details: Homo sapiens, DU-4475, 96 h; DU4475, breast cancer, four days; read-out: EC50
HCC1599 = assay: CellTiter-Glo Viability Assay, breast cancer; assay type: cell-based; details: Homo sapiens, 96 h; HCC1599, breast cancer, four days; read-out: EC50
MCF7 = assay: CellTiter-Glo Viability Assay, breast cancer; assay type: cell-based; details: Homo sapiens, 96 h; MCF7, breast cancer, four days; read-out: EC50
MDA-MB-231-Luc = assay: CellTiter-Glo Viability Assay, breast cancer; assay type: cell-based; details: Homo sapiens, 96 h; MDA-MB-231-Luc, breast cancer, four days; read-out: EC50
T47D = assay: CellTiter-Glo Viability Assay, breast cancer; assay type: cell-based; details: Homo sapiens, 96 h, breast cancer, four days, read-out: EC50
ZR-75-1 = assay: CellTiter-Glo Viability Assay, breast cancer; assay type: cell-based; details: Homo sapiens, 96 h; ZR-75-1, breast cancer, four days; read-out: EC50
all 50 cell lines = assay: CellTiter-Glo Viability Assay, average across all cell lines; assay type: cell-based; details: Homo sapiens; across all 50 cell lines; read-out: average EC50 for inhibition of cancer cell proliferation
Outline: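 Cancer cell lines of several tumour types plated at 300-3,000 cells/well and exposed to compound in duplicate for four days at 37° C, 5% CO2, with DMSO-treated controls. Viability read by CellTiter-Glo luminescence (ATP content); EC50 derived from dose-response curves.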

[1] = test system: colorectal cancer (6 cell lines); assay: CellTiter-Glo Viability Assay, colorectal cancer; assay type: cell-based; details: Homo sapiens, inhibition of cancer cell proliferation
[2] = test system: haematopoietic & lymphoid tumors (13 cell lines); assay: CellTiter-Glo Viability Assay, haematopoietic & lymphoid tumors; assay type: cell-based; details: Homo sapiens, inhibition of cancer cell proliferation
[3] = test system: liver cancer (3 cell lines); assay: CellTiter-Glo Viability Assay, liver cancer; assay type: cell-based; details: Homo sapiens, inhibition of cancer cell proliferation
[4] = test system: lung cancer (4 cell lines); assay: CellTiter-Glo Viability Assay, lung cancer; assay type: cell-based; details: Homo sapiens, inhibition of cancer cell proliferation
[5] = test system: ovarian cancer (4 cell lines); assay: CellTiter-Glo Viability Assay, ovarian cancer; assay type: cell-based; details: Homo sapiens, inhibition of cancer cell proliferation
[6] = test system: pancreatic cancer (8 cell lines); assay: CellTiter-Glo Viability Assay, pancreatic cancer; assay type: cell-based; details: Homo sapiens, inhibition of cancer cell proliferation
[7] = test system: prostate cancer (5 cell lines); assay: CellTiter-Glo Viability Assay, prostate cancer; assay type: cell-based; details: Homo sapiens
CLK3 = CLK3 (Homo sapiens, UniProt P49761); assay: CLK3 kinase activity assay (Z-lyte, Ser/Thr 18 peptide)
CLK3, sequence (P49761 whole entry): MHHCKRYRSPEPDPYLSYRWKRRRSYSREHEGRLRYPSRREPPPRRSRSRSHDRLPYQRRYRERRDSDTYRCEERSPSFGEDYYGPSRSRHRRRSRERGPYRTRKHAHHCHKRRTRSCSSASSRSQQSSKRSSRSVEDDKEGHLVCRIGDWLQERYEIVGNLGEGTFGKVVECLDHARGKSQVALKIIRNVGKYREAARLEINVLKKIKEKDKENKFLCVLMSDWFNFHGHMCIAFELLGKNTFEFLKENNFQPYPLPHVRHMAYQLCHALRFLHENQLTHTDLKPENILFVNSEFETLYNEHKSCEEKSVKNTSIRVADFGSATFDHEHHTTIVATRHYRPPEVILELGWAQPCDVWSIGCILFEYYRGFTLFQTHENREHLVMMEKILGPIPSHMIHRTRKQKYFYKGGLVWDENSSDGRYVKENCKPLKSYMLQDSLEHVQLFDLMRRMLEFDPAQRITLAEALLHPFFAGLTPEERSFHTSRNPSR
Procedure: Each compound was dissolved in DMSO as a 10 mM stock and used to prepare compound source plates.
This is a non-radioactive assay using fluorescence resonance energy transfer (FRET) between coumarin and fluorescein to detect kinase activity which is represented as a ratio of coumarin emission/fluorescein emission.
All reactions were performed in duplicate. Unphosphorylated (“0% Control”) and phosphorylated (“100% control”) forms of Ser/Thr 18 served as control reactions. Additionally, an 11-point dose-response curve of Staurosporine (1 uM top) was run to serve as a positive compound control.
After incubation, Development Reagent A was diluted in Development Buffer then added to the reaction and allowed to further incubate for one hour at room temperature.
Dose-response curves were generated and inhibitory concentration (IC50) values were calculated using non-linear regression curve fit in the Dotmatics' Studies Software (Bishops Stortford, UK).
Compounds were acoustically transferred on 1536-well plates (Echo 550, LabCyte) instrument. Kinase, peptide, and ATP reagents from the Z′-LYTE Kinase Assay Kits (Thermo Fisher) were dispensed onto the compound plates using an EL406 liquid dispenser (BioTek). Plates were incubated in the dark at room temperature for 1 hr. Development reagent was added to the plates and then incubated in the dark at room temperature for 1 hr. Fluorescence signal form the plate was then read using an EnVision Multilabel Plate Reader (Perkin Elmer).

[8] = HCT-116, HCT116 cell line, read-out: Colorectal cancer, EC50 (μM) HCT116
[9] = HT-29, HT29 cell line, read-out: Colorectal cancer, EC50 (μM) HT29
[10] = SW-620, SW620 cell line, read-out: Colorectal cancer, EC50 (μM) SW620
[11] = DLD-1 cell line, read-out: Colorectal cancer, EC50 (μM) DLD-1
[12] = SW48 cell line, read-out: Colorectal cancer, EC50 (μM) SW48
[13] = SW480 cell line, read-out: Colorectal cancer, EC50 (μM) SW480
[14] = DND41, DND-41 cell line, read-out: Haematopoietic & Lymphoid tumors, EC50 (μM) DND-41
[15] = MV4-11, MV-4-11 cell line, read-out: Haematopoietic & Lymphoid tumors, EC50 (μM) MV-4-11
[16] = Rec1, REC-1 cell line, read-out: Haematopoietic & Lymphoid tumors, EC50 (μM) REC-1
[17] = SU-DHL-4, SUDHL4 cell line, read-out: Haematopoietic & Lymphoid tumors, EC50 (μM) SUDHL4
[18] = HL-60 cell line, read-out: Haematopoietic & Lymphoid tumors, EC50 (μM) HL-60
[19] = JM1 cell line, read-out: Haematopoietic & Lymphoid tumors, EC50 (μM) JM1
[20] = JURKAT, Clone E6-1 cell line, read-out: Haematopoietic & Lymphoid tumors, EC50 (μM) JURKAT, Clone E6-1
[21] = JeKo-1 cell line, read-out: Haematopoietic & Lymphoid tumors, EC50 (μM) JeKo-1
[22] = KASUMI-1 cell line, read-out: Haematopoietic & Lymphoid tumors, EC50 (μM) KASUMI-1
[23] = Loucy cell line, read-out: Haematopoietic & Lymphoid tumors, EC50 (μM) Loucy
[24] = MOLT-4 cell line, read-out: Haematopoietic & Lymphoid tumors, EC50 (μM) MOLT-4
[25] = TF-1 cell line, read-out: Haematopoietic & Lymphoid tumors, EC50 (μM) TF-1
[26] = TOLEDO cell line, read-out: Haematopoietic & Lymphoid tumors, EC50 (μM) TOLEDO
[27] = SNU-398, SNU398 cell line, read-out: Liver cancer, EC50 SNU398
[28] = HEPG2 cell line, read-out: Liver cancer, EC50 HEPG2
[29] = PLC/PRF/5 cell line, read-out: Liver cancer, EC50 PLC/PRF/5
[30] = A-427, A427 cell line, read-out: Lung cancer, EC50 (μM) A427
[31] = HCC78, HCC-78 cell line, read-out: Lung cancer, EC50 (μM) HCC-78
[32] = NCI-H460 cell line, read-out: Lung cancer, EC50 (μM) NCI-H460
[33] = NCI-H522 cell line, read-out: Lung cancer, EC50 (μM) NCI-H522
[34] = PA-1, PA1 cell line, read-out: Ovarian cancer, EC50 (μM) PA1
[35] = TOV112D, TOV-112D cell line, read-out: Ovarian cancer, EC50 (μM) TOV-112D
[36] = OV-90 cell line, read-out: Ovarian cancer, EC50 (μM) OV-90
[37] = OVCAR-3 cell line, read-out: Ovarian cancer, EC50 (μM) OVCAR-3
[38] = BXPC-3, BxPC3 cell line, read-out: Pancreatic cancer, EC50 BxPC3
[39] = CAPAN-1, Capan1 cell line, read-out: Pancreatic cancer, EC50 Capan1
[40] = Capan-2, Capan2 cell line, read-out: Pancreatic cancer, EC50 Capan2
[41] = MIA PaCa-2 cell line, read-out: Pancreatic cancer, EC50 MIA PaCa-2
[42] = PANC 05.04 cell line, read-out: Pancreatic cancer, EC50 PANC 05.04
[43] = PANC-1 cell line, read-out: Pancreatic cancer, EC50 PANC-1
[44] = UPAFII cell line, read-out: Pancreatic cancer, EC50 UPAFII
[45] = DU-145, read-out: Prostate cancer EC50 Du-145
[46] = PC-3, PC3 cell line, inhibition of cancer cell proliferation, read-out: Prostate cancer EC50 PC3
[47] = 22Rv1 cell line, inhibition of cancer cell proliferation, read-out: Prostate cancer EC50 22Rv1
[48] = LNCap clone FGC cell line, inhibition of cancer cell proliferation, read-out: Prostate cancer EC50 LNCap clone FGC
[49] = VCaP (Sigma) cell line, inhibition of cancer cell proliferation, read-out: Prostate cancer EC50 VCaP (Sigma)

## Cc1cc2ncc(-c3ccc4cnc(NC(=O)c5ccnc(N6CCN(C)CC6)c5)cc4c3)cc2[nH]1 [Compound 87]
CLK2
  EC50: 0.0049 µM
BT-549
  EC50: 1.55 µM
CAMA1
  EC50: 2.65 µM
DU4475
  EC50: 1.37 µM
HCC1599
  EC50: 1.05 µM
MCF7
  EC50: 4.12 µM
MDA-MB-231-Luc
  EC50: 3.05 µM
T47D
  EC50: 7.09 µM
ZR-75-1
  EC50: 2.96 µM
All 50 cell lines
  EC50: 1.83 µM
[1]; [8]
  EC50: 0.904 µM
[1]; [9]
  EC50: 1.32 µM
[1]; [10]
  EC50: 0.798 µM
[1]; [11]
  EC50: 1.1 µM
[1]; [12]
  EC50: 0.394 µM
[1]; [13]
  EC50: 1.7 µM
[2]; [14]
  EC50: 0.538 µM
[2]; [15]
  EC50: 0.542 µM
[2]; [16]
  EC50: 0.203 µM
[2]; [17]
  EC50: 0.514 µM
[2]; [18]
  EC50: 2.46 µM
[2]; [19]
  EC50: 0.21 µM
[2]; [20]
  EC50: 1.26 µM
[2]; [21]
  EC50: 0.259 µM
[2]; [22]
  EC50: 1.16 µM
[2]; [23]
  EC50: 0.916 µM
[2]; [24]
  EC50: 1.35 µM
[2]; [25]
  EC50: 3.93 µM
[2]; [26]
  EC50: 0.337 µM
[3]; [27]
  EC50: 0.177 µM
[3]; [28]
  EC50: 6.94 µM
[3]; [29]
  EC50: 4.29 µM
[4]; [30]
  EC50: 1.12 µM
[4]; [31]
  EC50: 3.41 µM
[4]; [32]
  EC50: 1.17 µM
[4]; [33]
  EC50: 0.522 µM
[5]; [34]
  EC50: 1.36 µM
[5]; [35]
  EC50: 1.43 µM
[5]; [36]
  EC50: 3.65 µM
[5]; [37]
  EC50: 0.866 µM
[6]; [38]
  EC50: 1.25 µM
[6]; [39]
  EC50: 0.95 µM
[6]; [40]
  EC50: 1.16 µM
[6]; [41]
  EC50: 0.759 µM
[6]; [42]
  EC50: 2.88 µM
[6]; [43]
  EC50: 2.63 µM
[6]; [44]
  EC50: 1.03 µM
[7]; [45]
  EC50: 1.48 µM
[7]; [46]
  EC50: 1.64 µM
[7]; [47]
  EC50: 0.643 µM
[7]; [48]
  EC50: 7.84 µM
[7]; [49]
  EC50: 0.525 µM
CLK3
  EC50: 0.0382 µM

## CN1CCC(Sc2ccc3cnc(NC(=O)c4ccnc(SC5CCN(C)CC5)c4)cc3c2)CC1 [Compound 88]
CLK2
  EC50: 0.0045 µM
BT-549
  EC50: 1.03 µM
CAMA1
  EC50: 1.41 µM
DU4475
  EC50: 0.54 µM
HCC1599
  EC50: 2.31 µM
MCF7
  EC50: 1.9 µM
MDA-MB-231-Luc
  EC50: 1.22 µM
T47D
  EC50: 7.19 µM
ZR-75-1
  EC50: 1.44 µM
All 50 cell lines
  EC50: 1.15 µM
[1]; [8]
  EC50: 0.497 µM
[1]; [9]
  EC50: 0.574 µM
[1]; [10]
  EC50: 0.465 µM
[1]; [11]
  EC50: 0.677 µM
[1]; [12]
  EC50: 0.153 µM
[1]; [13]
  EC50: 0.796 µM
[2]; [14]
  EC50: 1 µM
[2]; [15]
  EC50: 0.204 µM
[2]; [16]
  EC50: 0.192 µM
[2]; [17]
  EC50: 0.527 µM
[2]; [18]
  EC50: 1.28 µM
[2]; [19]
  EC50: 0.158 µM
[2]; [20]
  EC50: 1.19 µM
[2]; [21]
  EC50: 0.32 µM
[2]; [22]
  EC50: 0.517 µM
[2]; [23]
  EC50: 0.614 µM
[2]; [24]
  EC50: 1.45 µM
[2]; [25]
  EC50: 2.67 µM
[2]; [26]
  EC50: 0.274 µM
[3]; [27]
  EC50: 0.167 µM
[3]; [28]
  EC50: 6.4 µM
[3]; [29]
  EC50: 1.56 µM
[4]; [30]
  EC50: 0.841 µM
[4]; [31]
  EC50: 1.29 µM
[4]; [32]
  EC50: 0.697 µM
[4]; [33]
  EC50: 0.33 µM
[5]; [34]
  EC50: 1.05 µM
[5]; [35]
  EC50: 0.873 µM
[5]; [36]
  EC50: 1.88 µM
[5]; [37]
  EC50: 0.569 µM
[6]; [38]
  EC50: 1.23 µM
[6]; [39]
  EC50: 1.03 µM
[6]; [40]
  EC50: 0.937 µM
[6]; [41]
  EC50: 0.296 µM
[6]; [42]
  EC50: 2.11 µM
[6]; [43]
  EC50: 0.808 µM
[6]; [44]
  EC50: 0.547 µM
[7]; [45]
  EC50: 0.772 µM
[7]; [46]
  EC50: 0.907 µM
[7]; [47]
  EC50: 0.532 µM
[7]; [48]
  EC50: 1.19 µM
[7]; [49]
  EC50: 0.728 µM
CLK3
  EC50: 0.0214 µM
